From PMC11992128, “Inhibition of Rho GEFs attenuates pulmonary fibrosis through suppressing myofibroblast activation and reprogramming profibrotic macrophages” (Cell Death & Disease, 2025)

Assays:
[1] = biological target: T1, DH/PH domain of LARG (Leukemia-associated RhoGEF); ARHGEF12(765-1138aa) (Homo sapiens, UniProt Q9NZN5); assay: CETSA, NIH/3T3 expressing the GST-tagged domain, Western blot; type: cell-based; details: 75 μM GL-V9, 3 h
T1 construct: DH/PH domain; GST-ARHGEF12(765-1138aa) by lentivirus in NIH/3T3 for the cell tests
T1 sequence (Q9NZN5 765-1138): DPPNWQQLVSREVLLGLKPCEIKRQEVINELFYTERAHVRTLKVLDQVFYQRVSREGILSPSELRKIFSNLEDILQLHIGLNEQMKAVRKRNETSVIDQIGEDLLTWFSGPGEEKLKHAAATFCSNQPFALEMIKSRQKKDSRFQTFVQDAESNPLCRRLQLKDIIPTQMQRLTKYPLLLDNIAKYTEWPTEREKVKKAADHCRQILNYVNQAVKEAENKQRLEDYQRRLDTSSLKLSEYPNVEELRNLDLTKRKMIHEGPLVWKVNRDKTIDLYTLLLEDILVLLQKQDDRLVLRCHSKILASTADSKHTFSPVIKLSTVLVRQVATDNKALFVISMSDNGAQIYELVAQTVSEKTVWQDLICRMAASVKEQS

[2] = biological target: T1, DH/PH domain of LARG (Leukemia-associated RhoGEF); ARHGEF12(765-1138aa); assay: surface plasmon resonance (Biacore S200, CM5 chip, immobilised protein); type: binding

COc1c(OCCCCN2CCCC2)cc(O)c2c(=O)cc(-c3ccccc3)oc12 [GL-V9, 5-hydroxy-8-methoxy-2-phenyl-7-(4-(pyrrolidine-1-yl)butoxy) 4H-chromen-4-one]
thermal stability [1]: GL-V9 significantly enhanced the thermal stability of the wild-type DH/PH domain | Kd [2]: 11.8 µM
